# Data from BindingDB's records for doi:10.1016/j.ejmech.2018.11.076 (Shaoxing University, 2019).
# Experiments:
# Cyclin-C [1] = target: T1, Cyclin-C (Homo sapiens, UniProt P24863); experiment: Displacement of Kinase tracer 236 from recombinant full-length human N-terminal GST-fused CDK8 (1 to 464 residues)/cyclin C (1 to 283 residues) expressed in baculovirus expression system after 60 mins by TR-FRET assay
# T1 sequence (P24863 whole entry): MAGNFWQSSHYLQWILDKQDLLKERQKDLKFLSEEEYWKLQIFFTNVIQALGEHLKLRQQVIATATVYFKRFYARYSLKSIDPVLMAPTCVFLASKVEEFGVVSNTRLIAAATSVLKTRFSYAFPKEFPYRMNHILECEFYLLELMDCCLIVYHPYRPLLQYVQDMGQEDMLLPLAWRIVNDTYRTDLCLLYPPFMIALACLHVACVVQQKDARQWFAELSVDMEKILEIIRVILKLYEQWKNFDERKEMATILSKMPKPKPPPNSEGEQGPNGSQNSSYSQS
# Cyclin-C [2] = target: T1, Cyclin-C; experiment: Inhibition of recombinant full-length human His-tagged CDK8/cyclinC expressed in baculovirus expression system by Lantha screen assay
IC50 (Cyclin-C [1]),IC50 (Cyclin-C [2]),Compound
1.6 nM,,Cc1ncccc1Oc1sc(C(N)=O)c2c1-c1c(cnn1C)CC2
,500 nM,"CC1CCc2nc(N)c(C#N)c(-c3cccnc3)c2C1 (configuration not stated) [2-azanyl-6-methyl-4-pyridin-3-yl-5,6,7,8-tetrahydroquinoline-3-carbonitrile]"
